Structures can show the parent of a compound that is named as a salt. Marks after values point to notes of the source that are not given here.
Legend:
male Ross 308 chicks [1] = assay: N excretion during total excreta collection period; assay type: in vivo, broiler chicks; settings: for N excretion: total excreta collection period, phytase 500 FTU/kg, betaine 2.75 g/kg
Experimental: (§1) The composition and nutrient specifications of the three basal starter (1-16 days post-hatch) and finisher (17-37 days post-hatch) diets are shown in Table 1. An NSP-degrading enzyme (Econase XT) was included across all the wheat-based diets to reflect standard practice and the finisher diets contained 20 g/kg Celite as an acid insoluble ash dietary marker. The starter diets were fed as mash, while the finisher diets were steam-pelleted at a conditioning temperature of 85° C. The NC1 diets were the ‘phytase-modified’ diets with formulated with reductions of 1.4 g/kg Ca and 1.5 g/kg P in the starter diets, which mainly stemmed from the elimination of dicalcium phosphate. The corresponding reductions in the finisher diets were 1.2 g/kg Ca and 1.4/kg P. The NC2 diets were the ‘betaine-modified’ diets in which energy density, methionine and choline levels were reduced mainly by lower inclusion levels of canola oil and synthetic methionine and the elimination of choline chloride relative to the PC diets. The energy densities were reduced from 12.55 to 12.24 MJ/kg in the starter diets and from 12.97 to 12.66 MJ/kg in the finisher diets. Methionine levels were reduced from 4.44 to 3.19 g/kg in the starter diets and from 4.18 to 2.93 g/kg in the finisher diets. Exogenous phytase (Quantum® Blue; AB Vista) was included in the relevant diets at 100 g per tonne or 500 FTU/kg phytase activity and, similarly, betaine HCl (Hi Beta″, 970 g/kg betaine hydrochloride; Rural Chemical Industries) was included in the diets at 2.75 g/kg.
(§2) The parameters evaluated included growth performance (weight gains, feed intakes, feed conversion ratios; FCR) from 1 to 16, 17 to 37 and 1 to 37 days post-hatch, 1 to 37 days weight gain-corrected FCR, mortality/cull rates, percentage toe ash, nitrogen (N) excretion and nutrient utilisation. Nutrient utilisation included apparent metabolisable energy (AME), expressed as both MJ/kg and MJ/day, N retention and N-corrected AME (AMEn). Also, breast weights in absolute and relative (% yield) terms, abdominal fat pad weights and pH of gizzard contents were determined. However, for reasons of practical expediency, absolute breast weights were determined on a ‘bone-in’ basis from birds that had not been de-feathered and this approach inflates both the absolute weight and yield; nevertheless, the data remains indicative. The experimental data was obtained and calculated via standard procedures followed by the Poultry Research Foundation. While the various procedures are not detailed in this report the majority of them have been described in detail (Selle et al., 2003b) previously.
(§3) The experimental data was statistically analysed as a 3×2×2 factorial array of dietary treatments. That is diet type (PC, NC1, NC2), without and with the addition of phytase, without and with the addition of betaine HCl. Each of the 12 dietary treatments was offered to 8 replicate cages of 6 birds or a total of 96 cages and 576 birds (male Ross 308 chicks). The IBM® SPSS® Statistics 20 program was used to analyse experimental data and the study complied with specific guidelines of the Animal Ethics Committee of Sydney University.

male Ross 308 chicks [2] = assay: Carcass traits (breast weight, breast meat yield, abdominal fat pad weight); assay type: in vivo, broiler chicks; settings: for Breast weight: bone-in; for Breast weight / Breast meat yield / Fat pad weight: phytase 500 FTU/kg, betaine 2.75 g/kg
Experimental: as §1, §2, §3

male Ross 308 chicks [3] = assay: Mortality/cull rates to 37 days post-hatch; settings: phytase 500 FTU/kg, betaine 2.75 g/kg
Experimental: as §1, §2
(§4) The experimental data was statistically analysed as a 3×2×2 factorial array of dietary treatments. […]

male Ross 308 chicks [4] = assay: Nutrient utilisation (AME, N retention, N-corrected AME); assay type: in vivo, broiler chicks; settings: for Increase in AMEn on addition to diet: diet type x betaine HCl interaction; for AME / AME (energy intake) / AMEn / N retention: phytase 500 FTU/kg, betaine 2.75 g/kg
Excerpt: Energy that is not metabolisable is ‘excreted energy’. Another way of defining ‘metabolisable energy’ is to refer to an ‘apparent metabolisable energy value’ or ‘AME value’. An ‘AME value’ is simply the gross energy of the feed consumed minus the gross energy contained in the faeces, urine, and gaseous products of digestion.

male Ross 308 chicks [5] = assay: Bone mineralisation (percentage toe ash); assay type: in vivo, broiler chicks; settings: phytase 500 FTU/kg, betaine 2.75 g/kg
Experimental: as §1, §2, §4

[6] = main effect across diets, hydrochloride
[7] = main effect across diets, listed as Betaine HCl, hydrochloride
[8] = main effect across diets, listed as betaine HCl, hydrochloride
[9] = main effect across diets, listed as betaine, hydrochloride

C[N+](C)(C)CC(=O)O [Betaine, betaine hydrochloride]
N excretion (male Ross 308 chicks [1]; NC1 diets): 37.30 g/bird
Reduction of N excretion versus NC2 control diets (male Ross 308 chicks [1]; NC2 diets): 7.03%
N excretion (male Ross 308 chicks [1]; NC2 diets): 42.47 g/bird
N excretion (male Ross 308 chicks [1]; PC diets): 40.34 g/bird
Reduction of N excretion (male Ross 308 chicks [1]; main effect): 7.69%
N excretion (male Ross 308 chicks [1]; [6]): 38.79^a g/bird
N excretion (male Ross 308 chicks [1]; [7]): 38.79 g/bird
N excretion (male Ross 308 chicks [1]; [8]): 38.79 g/bird
Breast weight (male Ross 308 chicks [2]; NC1 diets): 526 g/bird
Breast meat yield (male Ross 308 chicks [2]; NC1 diets): 25.7%
Fat pad weight (male Ross 308 chicks [2]; NC1 diets): 14.7 g/bird
Breast weight (male Ross 308 chicks [2]; NC2 diets): 625 g/bird
Breast meat yield (male Ross 308 chicks [2]; NC2 diets): 26.9%
Fat pad weight (male Ross 308 chicks [2]; NC2 diets): 18.4 g/bird
Breast weight (male Ross 308 chicks [2]; PC diets): 660 g/bird
Breast meat yield (male Ross 308 chicks [2]; PC diets): 28.3%
Fat pad weight (male Ross 308 chicks [2]; PC diets): 17.3 g/bird
Breast meat yield, phytase x betaine interaction mean (male Ross 308 chicks [2]; across diet types): 27.0%
Fat pad weight, phytase x betaine interaction mean (male Ross 308 chicks [2]; across diet types): 16.8 g/bird
Decrease in fat pad weights by betaine HCl (male Ross 308 chicks [2]; in the absence of phytase): 17.6%
Increase in fat pad weights by betaine HCl (male Ross 308 chicks [2]; in the presence of phytase): 8.67%
Increase in breast meat yield (relative) (male Ross 308 chicks [2]; main effect): 1.91%
Increase in breast yield (male Ross 308 chicks [2]; main effect): 0.5 percentage units
Breast weight (male Ross 308 chicks [2]; [6]): 624 g/bird
Breast weight (male Ross 308 chicks [2]; [9]): no influence
Breast meat yield (male Ross 308 chicks [2]; [6]): 26.7^b %
Fat pad weight (male Ross 308 chicks [2]; [6]): 19.1 g/bird
Breast meat yield (male Ross 308 chicks [2]; [7]): 26.7%
Breast meat yield (male Ross 308 chicks [2]; [8]): 26.7%
Fat pad weight (male Ross 308 chicks [2]; [8]): no effect
Mortality and cull rates (male Ross 308 chicks [3]; NC1 diets): 4.18%
Mortality and cull rates (male Ross 308 chicks [3]; NC2 diets): 6.25%
Mortality and cull rates (male Ross 308 chicks [3]; PC diets): 4.18%
Mortality and cull rates (male Ross 308 chicks [3]; main effect across diets): 4.17%
AME, diet type x betaine interaction mean (male Ross 308 chicks [4]; NC1 diets): 13.10 mJ/kg
AMEn, diet type x betaine HCl interaction mean (male Ross 308 chicks [4]; NC1 diets): 11.36 mJ/kg
Increase in AMEn on addition to diet (male Ross 308 chicks [4]; NC1 diets): 1.01 mJ
Increase in AME on addition to diet (male Ross 308 chicks [4]; NC1 diets, diet type x betaine interaction): 0.78 mJ
Increase in AME relative to control diet (male Ross 308 chicks [4]; NC1 diets, individual addition): 0.44 mJ
AME (male Ross 308 chicks [4]; NC1 diets): 12.77 MJ/kg DM
AME (energy intake) (male Ross 308 chicks [4]; NC1 diets): 1.868 mJ/day
AMEn (male Ross 308 chicks [4]; NC1 diets): 11.25 MJ/kg DM
N retention (male Ross 308 chicks [4]; NC1 diets): 52.14%
Increase in AMEn on addition to diet (male Ross 308 chicks [4]; NC2 diets): 0.17 mJ
Decrease in AME on addition to diet (male Ross 308 chicks [4]; NC2 diets, diet type x betaine interaction): 0.08 mJ
AME (male Ross 308 chicks [4]; NC2 diets): 12.86 MJ/kg DM
AME (energy intake) (male Ross 308 chicks [4]; NC2 diets): 2.061 mJ/day
AMEn (male Ross 308 chicks [4]; NC2 diets): 11.43 MJ/kg DM
N retention (male Ross 308 chicks [4]; NC2 diets): 49.25%
Increase in AMEn on addition to diet (male Ross 308 chicks [4]; PC diets): 0.23 mJ
Increase in AME on addition to diet (male Ross 308 chicks [4]; PC diets, diet type x betaine interaction): 0.20 mJ
AME (male Ross 308 chicks [4]; PC diets): 13.29 MJ/kg DM
AME (energy intake) (male Ross 308 chicks [4]; PC diets): 2.077 mJ/day
AMEn (male Ross 308 chicks [4]; PC diets): 11.69 MJ/kg DM
N retention (male Ross 308 chicks [4]; PC diets): 52.05%
AME (energy intake), phytase x betaine interaction mean (male Ross 308 chicks [4]; across diet types): 2.002 mJ/day
AMEn, phytase x betaine HCl interaction mean (male Ross 308 chicks [4]; across diet types): 11.46 mJ/kg
Increase in AMEn by betaine HCl (male Ross 308 chicks [4]; in the absence of phytase): 0.20 mJ
Decrease in AME on betaine addition (male Ross 308 chicks [4]; in the absence of phytase, across diet types): 0.08 mJ
Increase in AMEn by betaine HCl (male Ross 308 chicks [4]; in the presence of phytase): 0.74 mJ
Increase in AME on betaine addition (male Ross 308 chicks [4]; in the presence of phytase, across diet types): 0.67 mJ
Increase in AME (male Ross 308 chicks [4]; main effect): 0.30 mJ/kg
N retention (male Ross 308 chicks [4]; main effect across diets): 52.02%
AME (male Ross 308 chicks [4]; [6]): 13.33^b MJ/kg DM
AME (energy intake) (male Ross 308 chicks [4]; [6]): 2.126 mJ/day
AMEn (male Ross 308 chicks [4]; [6]): 11.79^b MJ/kg DM
AMEn (male Ross 308 chicks [4]; [8]): 11.79 MJ/kg DM
AME (male Ross 308 chicks [4]; [9]): 13.33 MJ/kg DM
AME (energy intake) (male Ross 308 chicks [4]; [9]): did not influence
Toe ash (male Ross 308 chicks [5]; NC1 diets): 11.15%
Toe ash (male Ross 308 chicks [5]; NC2 diets): 12.29%
Toe ash (male Ross 308 chicks [5]; PC diets): 11.99%
Toe ash (male Ross 308 chicks [5]; main effect across diets): 12.07%

Source: US11974976B2, “Animal feeds and feed premixes containing betaine hydrochloride and a phytase” (Rural Chemical Industries (AUST) PTY LTD, priority 2013, dated 2024)
